Assays:
[1] = Affinity to Cl- in chloroform by extraction of Et4N+Cl- from water; type: binding; details: extraction of Et4N^+Cl^– from water into chloroform at 303 K; new compound or new data
Procedure: Measurement of affinities to Et4N+Cl- in chloroform through extraction from […]
This method is adapted from Clare et al..4 The Et4N+Cl- salt was obtained from Sigma Aldrich and dried under vacuum overnight prior to solution preparation using deionised water that had been passed through a Millipore filtration system. All host solutions were prepared using chloroform that had been deacidified by passage through a flash chromatography column containing basic alumina.
A solution of host in deacidified chloroform was combined with 10 mL of aqueous Et4N+Cl-guest solution in a sample tube (30 mL). Concentrations and volumes are specified in Table
S1. A magnetic stirring bar (2 cm) was added to the tube and the lower half was immersed in a water bath heated to 303 K, while the contents were stirred vigorously to achieve good mixing of the two phases. After 30 minutes, stirring was stopped and the two phases were allowed to separate. The majority of the aqueous phase was then removed using a pipette and the remaining organic phase was centrifuged for 10 minutes at 4000 rpm. The chloroform solution was then filtered through Whatman 1PS hydrophobic filter paper to remove any remaining aqueous phase. Solvent from the filtrate was then removed in vacuo and the solid was further dried under vacuum. The resulting solids from the extraction experiments were dissolved in acetone-d6 and the solutions were analysed with 1H NMR spectroscopy.
A value for the molar ratio (R) was determined by integrating the signal at δ = 3.5 ppm (CH2 of Et4N+Cl-) against one of the receptor signals.
The values for R obtained from the 1H NMR spectra were used to calculate values for the equilibrium extraction constants Ke:
Horg + Xaq− + Yaq+ ⇌HX−Yorg+ Ke = org […]
To convert the extraction constants Ke into association constants Ka it is necessary to obtain the distribution constants Kd for the substrates between aqueous and organic phases:
The Kd value for tetraethylammonium chloride partitioning between water and chloroform has been determined and reported previously to be 1.269 × 10-5 M-1.5
The binding constant Ka is then calculated from Ke and Kd:
H + X−Y+ ⇌ HX−Y+ K = org = e […]
When [G] > 100 mM, the amount of salt that migrates from the aqueous phase into the organic phase without assistance of the host has to be taken into account by correcting the measured […]
Table S1. Overview of the conditions and results from the extraction experiments Receptor [H] (mM) [G] (mM) Vorg (mL) Vaq (mL) Rmeasured Ka (M-1)

[2] = test system: YFP-FRT cells; assay: IncuCyte ZOOM apoptosis (annexin V red) in YFP-FRT cells; type: cell-based; details: for time from which apoptosis is apparent: 30 and 50 μM, P < 0.05 vs. DMSO; for induction of apoptosis: all concentrations tested, 24 h period
Procedure: To test for the induction of apoptosis by anionophores, we also used the IncuCyte ZOOMTM (Essen Bioscience) live-cell analysis system. YFP-FRT cells were seeded and grown on 96-well plates as described above for cell viability studies. After 48 h, the YFP-FRT culture media was replaced with fresh culture media containing test anionophores or the vehicle (DMSO 0.5% v v-1) and IncuCyte annexin V red reagent (Essen Bioscience) was added following the manufacturer’s instructions before the YFP-FRT cells were transferred to the IncuCyte ZOOMTM. At 2 h intervals over a 24 h period, 4 images of each well on 96-well plates were acquired; the phase contrast images were used to determine the total number of cells per well, while the fluorescence images to identify the number of apoptotic cells labelled red by the IncuCyte annexin V red reagent. In each experiment, one data point is the average value […]
Except for ivacaftor and lumacaftor (Selleck Chemicals; Stratech Scientific Ltd., Newmarket, UK), chemicals were supplied by the Sigma-Aldrich Company Ltd. (now Merck KGaA) (Gillingham, UK). UTP was dissolved in distilled water, forskolin in methanol, while anionophores and channel modulators were prepared in DMSO. Stock solutions were stored at –20 °C except those of anionophores, which were stored at room temperature. Immediately before use, stock solutions were diluted to final concentrations. Precautions against light-sensitive reactions were observed when using anionophores and channel modulators. DMSO […]
Previous work has identified that some anionophores trigger apop totic cell death.18,19,2018,19 Using the IncuCyte ZOOMTM live-cell analysis system and the IncuCyte annexin V red reagent, we assessed whether the anionophores 11, 12, 15 and 19 induce […]
concentrations ≥ 10 µM with the effects of 30 and 50 µM apparent from as early as 2 h (P < […]
concentrations tested over the 24 h period studied (P > 0.05 vs. DMSO 0.5% v v-1) (Fig. S25). […]
the data re-affirm the promising biological activity of anionophore 11.

| Structure (SMILES) | K a to Cl^– in CHCl3 [1] | time from which apoptosis is apparent [2] | induction of apoptosis [2] |
| --- | --- | --- | --- |
| COCCOCCOC(=O)[C@]12CC[C@@H](NC(=O)Nc3ccc(C(F)(F)F)cc3)C[C@@H]1C[C@@H](NC(=O)Nc1ccc(C(F)(F)F)cc1)CC2 [Compound 9] | 1.4 × 10^8 M^–1 |  |  |
| COCCOCCOC(=O)[C@]12CC[C@@H](NC(=O)Nc3cc(C(F)(F)F)cc(C(F)(F)F)c3)C[C@@H]1C[C@@H](NC(=O)Nc1cc(C(F)(F)F)cc(C(F)(F)F)c1)CC2 [Compound 10] | 2.5 × 10^8 M^–1 |  |  |
| CCOC(=O)[C@]12CC[C@@H](NC(=S)Nc3ccc([N+](=O)[O-])cc3)C[C@@H]1C[C@@H](NC(=S)Nc1ccc([N+](=O)[O-])cc1)CC2 [Compound 12] |  | ≥ 2 h | positive effects |
| CCCCCCCCOC(=O)[C@]12CC[C@@H](NC(=S)Nc3ccc([N+](=O)[O-])cc3)C[C@@H]1C[C@@H](NC(=S)Nc1ccc([N+](=O)[O-])cc1)CC2 [Compound 13] | 1.5 × 10^9 M^–1 |  |  |
| CCOC(=O)[C@]12CC[C@@H](NC(=S)Nc3cc(C(F)(F)F)cc(C(F)(F)F)c3)C[C@@H]1C[C@@H](NC(=S)Nc1cc(C(F)(F)F)cc(C(F)(F)F)c1)CC2 [Compound 15] |  | ≥ 2 h | positive effects |
| FC(F)(F)c1ccc(NC(=S)NCCN(CCNC(=S)Nc2ccc(C(F)(F)F)cc2)CCNC(=S)Nc2ccc(C(F)(F)F)cc2)cc1 [Compound 18] | 1.5 × 10^7 ^b M^–1 |  |  |
| FC(F)(F)c1cc(NC(=S)NCCN(CCNC(=S)Nc2cc(C(F)(F)F)cc(C(F)(F)F)c2)CCNC(=S)Nc2cc(C(F)(F)F)cc(C(F)(F)F)c2)cc(C(F)(F)F)c1 [Compound 19] | 1.5 × 10^9 ^b M^–1 | ≥ 2 h | positive effects |

Reference: PMC6984391, “Anion carriers as potential treatments for cystic fibrosis: transport in cystic fibrosis cells, and additivity to channel-targeting drugs” (Chemical Science, 2019)
